The values that follow come from publication PMC7719162, “Positioning of an unprecedented spiro[5.5]undeca ring system into kinase inhibitor space” (Scientific Reports, 2020).

The target of one test is T1, ARK5/NUAK1 (Homo sapiens, UniProt O60285).
T1 construct: purchased Reaction Biology Corp
T1 sequence (O60285 1-661): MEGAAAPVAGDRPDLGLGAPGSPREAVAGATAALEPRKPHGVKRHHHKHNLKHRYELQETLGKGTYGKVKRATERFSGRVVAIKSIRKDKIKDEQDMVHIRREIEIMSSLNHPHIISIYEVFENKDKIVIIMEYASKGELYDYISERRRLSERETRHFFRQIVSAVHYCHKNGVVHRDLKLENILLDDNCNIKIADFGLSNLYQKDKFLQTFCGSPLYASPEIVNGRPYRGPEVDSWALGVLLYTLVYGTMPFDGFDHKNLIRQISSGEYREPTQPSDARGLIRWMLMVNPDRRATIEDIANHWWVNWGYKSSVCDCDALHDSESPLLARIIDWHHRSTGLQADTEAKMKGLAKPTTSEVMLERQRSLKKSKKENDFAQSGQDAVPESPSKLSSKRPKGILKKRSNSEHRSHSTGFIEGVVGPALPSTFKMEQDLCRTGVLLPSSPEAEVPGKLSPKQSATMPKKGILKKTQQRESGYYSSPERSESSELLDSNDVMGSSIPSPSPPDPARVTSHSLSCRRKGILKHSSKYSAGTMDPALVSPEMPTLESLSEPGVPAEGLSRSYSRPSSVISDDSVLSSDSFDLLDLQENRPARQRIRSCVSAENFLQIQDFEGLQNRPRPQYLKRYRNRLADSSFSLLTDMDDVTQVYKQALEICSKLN
The conditions noted are these: cited from earlier work.

The target in another test is T2, Haspin (Homo sapiens, UniProt Q8TF76).
T2 construct: purchased Reaction Biology Corp
T2 sequence (Q8TF76 1-798): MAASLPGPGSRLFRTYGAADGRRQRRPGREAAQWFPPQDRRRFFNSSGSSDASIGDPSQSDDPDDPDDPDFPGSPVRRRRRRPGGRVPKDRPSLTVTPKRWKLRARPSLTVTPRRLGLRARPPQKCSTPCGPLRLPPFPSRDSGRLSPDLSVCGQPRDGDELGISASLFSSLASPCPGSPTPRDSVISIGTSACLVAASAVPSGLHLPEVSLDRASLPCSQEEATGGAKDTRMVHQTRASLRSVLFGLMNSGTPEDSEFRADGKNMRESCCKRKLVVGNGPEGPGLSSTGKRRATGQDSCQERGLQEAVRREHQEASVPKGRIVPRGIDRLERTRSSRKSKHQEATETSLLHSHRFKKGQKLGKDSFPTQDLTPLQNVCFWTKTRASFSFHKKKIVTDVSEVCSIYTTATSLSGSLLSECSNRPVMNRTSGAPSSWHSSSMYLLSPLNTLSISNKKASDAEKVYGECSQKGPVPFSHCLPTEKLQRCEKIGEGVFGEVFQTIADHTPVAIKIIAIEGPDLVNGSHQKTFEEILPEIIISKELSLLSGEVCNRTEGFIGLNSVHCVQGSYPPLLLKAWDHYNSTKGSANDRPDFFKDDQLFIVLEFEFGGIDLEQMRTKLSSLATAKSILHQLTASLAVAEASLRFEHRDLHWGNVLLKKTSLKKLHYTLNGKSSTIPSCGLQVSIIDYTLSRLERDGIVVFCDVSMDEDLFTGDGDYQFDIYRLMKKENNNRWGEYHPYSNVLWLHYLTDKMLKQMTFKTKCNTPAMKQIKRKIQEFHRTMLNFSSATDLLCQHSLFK
The conditions noted are these: cited from earlier work.

Another test has as its target T3, ROCK1 (Homo sapiens, UniProt Q13464).
T3 construct: purchased Reaction Biology Corp
The conditions noted are these: cited from earlier work.

Test [1] deals with T4, ZIPK/DAPK3 (Homo sapiens, UniProt O43293).
T4 construct: purchased Reaction Biology Corp
T4 sequence (O43293 whole entry): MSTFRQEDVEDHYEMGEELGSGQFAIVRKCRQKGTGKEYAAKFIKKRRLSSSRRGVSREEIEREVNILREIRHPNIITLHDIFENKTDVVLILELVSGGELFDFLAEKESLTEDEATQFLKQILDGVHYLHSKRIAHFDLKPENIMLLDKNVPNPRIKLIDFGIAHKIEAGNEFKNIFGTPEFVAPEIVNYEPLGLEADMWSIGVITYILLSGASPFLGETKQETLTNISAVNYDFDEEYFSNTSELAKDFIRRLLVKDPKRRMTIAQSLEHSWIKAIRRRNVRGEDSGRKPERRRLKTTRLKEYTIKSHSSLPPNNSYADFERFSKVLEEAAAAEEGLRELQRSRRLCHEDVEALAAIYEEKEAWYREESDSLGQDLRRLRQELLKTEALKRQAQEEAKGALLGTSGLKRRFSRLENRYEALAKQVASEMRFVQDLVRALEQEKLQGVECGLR
To be noted: cited from earlier work.

In a further test the target is T5, AMPK(A2/B2/G3) (Homo sapiens, UniProt P54646).
T5 construct: purchased Reaction Biology Corp
T5 sequence (P54646 whole entry): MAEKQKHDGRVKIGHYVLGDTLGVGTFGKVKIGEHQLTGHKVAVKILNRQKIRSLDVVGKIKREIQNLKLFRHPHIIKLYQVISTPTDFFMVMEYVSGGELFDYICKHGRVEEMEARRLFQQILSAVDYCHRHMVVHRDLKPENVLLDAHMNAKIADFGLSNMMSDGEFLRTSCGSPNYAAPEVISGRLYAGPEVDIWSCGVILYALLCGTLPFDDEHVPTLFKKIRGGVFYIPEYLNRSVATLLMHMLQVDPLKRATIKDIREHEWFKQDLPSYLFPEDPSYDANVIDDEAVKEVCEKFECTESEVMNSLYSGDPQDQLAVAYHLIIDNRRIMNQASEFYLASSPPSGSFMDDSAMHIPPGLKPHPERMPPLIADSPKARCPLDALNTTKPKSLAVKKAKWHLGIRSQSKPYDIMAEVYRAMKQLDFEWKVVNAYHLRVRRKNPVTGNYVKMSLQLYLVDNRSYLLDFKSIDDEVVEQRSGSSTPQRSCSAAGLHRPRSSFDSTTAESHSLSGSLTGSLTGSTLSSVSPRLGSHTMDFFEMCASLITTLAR
T5 sequence (O43741 whole entry partner): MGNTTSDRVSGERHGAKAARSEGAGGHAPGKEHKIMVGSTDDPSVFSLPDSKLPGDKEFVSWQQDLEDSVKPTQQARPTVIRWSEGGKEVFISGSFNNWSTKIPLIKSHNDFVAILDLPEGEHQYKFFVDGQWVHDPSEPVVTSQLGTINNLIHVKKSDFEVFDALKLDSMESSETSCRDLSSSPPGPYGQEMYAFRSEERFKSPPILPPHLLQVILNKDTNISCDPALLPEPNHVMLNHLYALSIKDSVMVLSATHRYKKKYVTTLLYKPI
T5 sequence (Q9UGI9 whole entry partner): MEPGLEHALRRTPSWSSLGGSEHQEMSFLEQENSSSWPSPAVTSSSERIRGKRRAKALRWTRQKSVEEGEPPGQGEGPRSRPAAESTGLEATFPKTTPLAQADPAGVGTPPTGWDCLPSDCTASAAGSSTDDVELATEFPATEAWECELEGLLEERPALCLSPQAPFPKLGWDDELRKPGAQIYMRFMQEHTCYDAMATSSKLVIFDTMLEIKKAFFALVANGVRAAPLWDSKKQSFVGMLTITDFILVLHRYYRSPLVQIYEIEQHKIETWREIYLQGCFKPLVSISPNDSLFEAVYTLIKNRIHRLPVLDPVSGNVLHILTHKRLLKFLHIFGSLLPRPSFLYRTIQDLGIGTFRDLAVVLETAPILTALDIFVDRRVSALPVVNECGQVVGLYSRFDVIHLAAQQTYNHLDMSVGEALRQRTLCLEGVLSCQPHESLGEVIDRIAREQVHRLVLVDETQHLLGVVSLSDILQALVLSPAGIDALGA
Briefly: Kinase panel assay (radiolabelled). It counts as biochemical. The conditions noted are these: 30 μM compound, ATP 10 μM; duplicates Data 1/Data 2.

The next test addresses T6, CDK1/cyclin B (Homo sapiens, UniProt P06493).
T6 construct: purchased Reaction Biology Corp
Kind of test: Kinase panel assay (radiolabelled). To be noted: ATP 10 μM. It counts as biochemical.

The next test deals with T7, DNA-PK (Homo sapiens, UniProt P78527).
T7 construct: purchased Reaction Biology Corp
Briefly: Kinase panel assay (radiolabelled). It counts as biochemical. To be noted: 30 μM compound, ATP 10 μM, duplicates Data 1/Data 2.

The next test concerns the target T8, TRKC (G623E) (Homo sapiens, UniProt Q16288, G623E).
T8 construct: purchased Reaction Biology Corp
Briefly: Kinase panel assay (radiolabelled). To be noted: 30 μM compound, ATP 10 μM, duplicates Data 1/Data 2. It counts as biochemical.

Test [2] has as its target T4, ZIPK/DAPK3. Kind of test: Kinase panel assay (radiolabelled). Format: biochemical. The conditions noted are these: ATP 10 μM.
The mark [3] stands for this setting: 30 μM compound, duplicates Data 1/Data 2.
[4] abbreviates: 30 μM compound, duplicates Data 1/Data 2, read-out: % Enzyme Activity (relative to DMSO controls).
[5] abbreviates: 30 μM, average ± SD, read-out: % Residual Activity at 30 μM.
The mark [6] stands for this setting: read-out: % Enzyme Activity (relative to DMSO controls).

SMILES strings stand for the structures. Where two headings read alike, the source gives them in different places.

T6 sequence (P06493 whole entry): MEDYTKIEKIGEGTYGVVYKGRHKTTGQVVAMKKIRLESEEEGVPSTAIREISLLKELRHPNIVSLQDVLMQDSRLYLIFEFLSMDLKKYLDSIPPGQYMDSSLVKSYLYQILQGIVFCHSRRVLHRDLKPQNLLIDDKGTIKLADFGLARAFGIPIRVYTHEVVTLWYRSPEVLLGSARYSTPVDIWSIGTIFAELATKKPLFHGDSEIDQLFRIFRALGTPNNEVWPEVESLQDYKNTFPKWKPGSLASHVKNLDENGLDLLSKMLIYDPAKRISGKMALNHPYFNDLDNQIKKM
T6 sequence (P14635 whole entry partner): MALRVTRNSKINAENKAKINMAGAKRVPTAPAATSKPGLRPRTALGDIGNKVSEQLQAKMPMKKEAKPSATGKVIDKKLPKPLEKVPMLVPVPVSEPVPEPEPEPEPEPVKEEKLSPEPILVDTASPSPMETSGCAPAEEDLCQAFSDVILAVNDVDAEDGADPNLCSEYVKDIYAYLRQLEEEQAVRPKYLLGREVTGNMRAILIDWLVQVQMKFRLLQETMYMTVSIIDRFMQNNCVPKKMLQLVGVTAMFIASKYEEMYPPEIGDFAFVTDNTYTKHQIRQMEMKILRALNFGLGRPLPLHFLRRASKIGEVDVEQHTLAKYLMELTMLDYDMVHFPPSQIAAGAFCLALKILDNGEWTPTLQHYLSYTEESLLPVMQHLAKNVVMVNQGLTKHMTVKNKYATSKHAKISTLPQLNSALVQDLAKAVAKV
T8 sequence (Q16288 32-839 G623E): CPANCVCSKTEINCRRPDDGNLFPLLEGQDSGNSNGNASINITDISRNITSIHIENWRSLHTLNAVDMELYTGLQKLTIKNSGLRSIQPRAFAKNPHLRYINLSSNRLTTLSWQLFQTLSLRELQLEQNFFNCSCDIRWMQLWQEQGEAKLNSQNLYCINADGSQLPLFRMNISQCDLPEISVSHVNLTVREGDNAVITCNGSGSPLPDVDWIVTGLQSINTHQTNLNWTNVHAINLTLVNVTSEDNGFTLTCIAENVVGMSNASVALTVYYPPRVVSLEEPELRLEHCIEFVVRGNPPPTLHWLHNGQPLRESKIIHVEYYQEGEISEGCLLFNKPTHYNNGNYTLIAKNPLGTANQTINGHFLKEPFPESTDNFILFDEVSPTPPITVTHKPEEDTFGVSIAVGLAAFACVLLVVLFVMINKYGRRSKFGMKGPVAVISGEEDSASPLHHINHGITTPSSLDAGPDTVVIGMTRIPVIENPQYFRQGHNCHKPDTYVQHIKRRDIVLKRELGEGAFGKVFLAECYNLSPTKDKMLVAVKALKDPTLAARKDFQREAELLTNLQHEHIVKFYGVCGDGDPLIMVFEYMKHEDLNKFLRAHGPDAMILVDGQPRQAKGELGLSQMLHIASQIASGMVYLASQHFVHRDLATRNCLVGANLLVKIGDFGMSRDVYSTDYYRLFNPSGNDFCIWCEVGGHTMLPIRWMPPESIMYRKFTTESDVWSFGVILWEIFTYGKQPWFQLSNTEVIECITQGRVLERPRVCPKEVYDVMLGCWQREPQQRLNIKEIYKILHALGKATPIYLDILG
T3 sequence (Q13464 whole entry): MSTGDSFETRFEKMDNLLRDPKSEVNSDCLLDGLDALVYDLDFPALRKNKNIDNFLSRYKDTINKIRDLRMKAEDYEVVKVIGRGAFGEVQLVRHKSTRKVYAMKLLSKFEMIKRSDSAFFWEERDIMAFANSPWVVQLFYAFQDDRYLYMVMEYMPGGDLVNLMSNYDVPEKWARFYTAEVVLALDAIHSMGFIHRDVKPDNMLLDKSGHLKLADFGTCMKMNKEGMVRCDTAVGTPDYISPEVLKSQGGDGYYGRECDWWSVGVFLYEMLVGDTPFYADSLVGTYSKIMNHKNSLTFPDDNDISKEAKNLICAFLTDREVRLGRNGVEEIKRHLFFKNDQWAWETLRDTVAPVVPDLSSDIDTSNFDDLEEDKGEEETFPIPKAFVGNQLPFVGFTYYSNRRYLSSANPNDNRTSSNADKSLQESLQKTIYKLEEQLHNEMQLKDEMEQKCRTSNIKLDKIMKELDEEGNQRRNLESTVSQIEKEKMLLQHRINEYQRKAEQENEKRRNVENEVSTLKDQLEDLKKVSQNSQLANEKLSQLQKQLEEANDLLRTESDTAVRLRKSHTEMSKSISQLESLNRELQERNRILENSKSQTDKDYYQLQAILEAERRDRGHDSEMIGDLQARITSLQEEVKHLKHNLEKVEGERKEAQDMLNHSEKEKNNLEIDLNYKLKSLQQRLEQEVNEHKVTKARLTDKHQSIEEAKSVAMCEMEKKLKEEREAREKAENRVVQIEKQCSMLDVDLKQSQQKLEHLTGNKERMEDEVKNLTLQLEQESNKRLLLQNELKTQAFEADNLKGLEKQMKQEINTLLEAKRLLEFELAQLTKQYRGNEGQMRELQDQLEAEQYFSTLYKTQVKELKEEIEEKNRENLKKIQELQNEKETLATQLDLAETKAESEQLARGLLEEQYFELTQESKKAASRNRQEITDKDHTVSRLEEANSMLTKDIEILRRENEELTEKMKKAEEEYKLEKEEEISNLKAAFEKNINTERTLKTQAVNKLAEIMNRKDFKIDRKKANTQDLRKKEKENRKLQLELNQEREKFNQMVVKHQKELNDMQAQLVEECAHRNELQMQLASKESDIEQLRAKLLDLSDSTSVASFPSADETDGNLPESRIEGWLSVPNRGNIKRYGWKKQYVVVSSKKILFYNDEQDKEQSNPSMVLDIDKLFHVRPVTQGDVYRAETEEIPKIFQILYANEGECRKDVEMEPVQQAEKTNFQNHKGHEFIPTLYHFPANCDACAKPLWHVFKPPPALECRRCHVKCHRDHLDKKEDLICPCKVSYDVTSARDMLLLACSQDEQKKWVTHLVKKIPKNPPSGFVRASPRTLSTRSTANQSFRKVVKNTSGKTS

Consider `O=C1C=CC2(C=C1)OCC(Cc1cc(C(F)(F)F)cc(C(F)(F)F)c1)C(=O)N2c1ccccc1` (racemic) [1c], for which the “% Residual Activity at 30 μM” value on ARK5/NUAK1 is reported as 70.8 ± 0.1%; at Haspin, 66.4 ± 0.5%; at ROCK1, 97 ± 2.9%; at ZIPK/DAPK3 [1], 101.8 ± 0.8%.

Take `O=C1C=CC2(C=C1)OCC(Cc1cn(-c3cccc(Cl)c3)nn1)C(=O)N2c1ccccc1` (stereo not drawn) [2d, 3-((1-(3-Chlorophenyl)-1H-1,2,3-triazol-4-yl)methyl)-5-phenyl-1-oxa-5-azaspiro[5.5]undeca-7,10-diene-4,9-dione]: the “% Enzyme Activity (relative to DMSO controls)” value was 88.96% at AMPK(A2/B2/G3); 58.64% on CDK1/cyclin B (setting [3]); 101.60% on DNA-PK; 114.78% at TRKC (G623E); 86.95% at ZIPK/DAPK3 [2] (setting [3]). Moreover, the remaining activity at 30 µM was 59.3% at CDK1/cyclin B (setting [4]); 59 ± 0.5% on CDK1/cyclin B (setting [5]); 103% at DNA-PK (setting [6]); 118% on TRKC (G623E) (setting [6]); 88.8% on ZIPK/DAPK3 [2] (setting [4]); 87.9 ± 1.3% at ZIPK/DAPK3 [2] (setting [5]).
